Experimental findings from patent US20030229105A1, “Treatment of autoimmune disorders” (Cyclacel Limited, priority 2002, published 2003) are described below.

Entries after “also recorded” stand apart in the source; their conditions may differ.

Holding throughout (type): cell-based
Assay [1] relates to HIV-1 NSI (THA/92/001, subtype E envelope). The assay is described as follows: p24 gag ELISA of PHA-activated PBMC infected with NSI field isolate. The conditions noted are these: 10 μM drug postinfection. Here is the method:
We chose HIV-1 stably integrated cells, lymphocytic ACH2 and 8E5 cell lines, as well as monocytic U1 cells (and their uninfected parental counterparts CEM and U937, respectively) for our initial studies, since viral transcription could be activated and scored through signals, such as Tat, TNF-α or phorbol myristate acetate (PMA) and PHA. We first activated viruses in these cells with TNF-α (10 ng/ml) at 37° C. for 2 h, followed by washing, and then we incubated cells with 10 μM concentrations of each drug. […]. A somewhat similar pattern of drug inhibition was also seen when ACH2, 8E5, and U1 cells were treated with either Tat or a combination of PMA and PHA to induce full-length viral transcripts. […]. […] We next examined the effect of all three drugs on primary HIV-1 field isolates of SI and NSI strains. Activated PBMC were infected with two independent HIV-1 viral strains of SI (UG/92/029, subtype A envelope) and NSI (THA/92/001, subtype E envelope). […].
Five days later, the supernatants were collected, and the amount of newly synthesized HIV-1 was measured by p24 antigen assay. […]
Media from HIV-1 infected cell lines were centrifuged to pellet the cells, and supernatants were collected and diluted to 1:100 to 1:1,000 in RPMI 1640 prior to ELISA. […] The p24 gag antigen level was analyzed by using the HIVAG-1 Monoclonal Antibody Kit (Abbott Laboratories, Diagnostics Division). […]
(In general: An ELISA detects its analyte on a solid surface through an enzyme-linked reagent.)

In a further assay the test system is HIV-1. The assay is described as follows: p24 antigen ELISA of supernatants from induced HIV-1 latently infected cells (ACH2, 8E5, U1). The conditions noted are these: for inhibition of HIV-1 replication (p24 in medium): ACH2, 8E5, U1 cells induced with TNF-α (10 ng/ml, 2 h), 10 μM drug, 5 days; for p24 antigen release, time course: ACH2 cells, days 2, 4, 6. Here is the method: We chose HIV-1 stably integrated cells, lymphocytic ACH2 and 8E5 cell lines, as well as monocytic U1 cells (and their uninfected parental counterparts CEM and U937, respectively) for our initial studies, since viral transcription could be activated and scored through signals, such as Tat, TNF-α or phorbol myristate acetate (PMA) and PHA. We first activated viruses in these cells with TNF-α (10 ng/ml) at 37° C. for 2 h, followed by washing, and then we incubated cells with 10 μM concentrations of each drug. […] We next examined the effect of all three drugs on primary HIV-1 field isolates of SI and NSI strains. Activated PBMC were infected with two independent HIV-1 viral strains of SI (UG/92/029, subtype A envelope) and NSI (THA/92/001, subtype E envelope).
Five days later, the supernatants were collected, and the amount of newly synthesized HIV-1 was measured by p24 antigen assay. (B) Purified Tat (300 μg) was electroporated into ACH2, 8E5, and U1 cells and subsequently treated with various drugs for 5 days. […] Seven days later samples were collected and used for p19 gag ELISA. (E) PHA-activated PBMC (5×10^6) were infected with HIV-1 either SI (UG/92/029 Uganda strain, subtype A envelope) or NSI (THA/92/001, Thailand strain, subtype E envelope) strains. Unadsorbed viruses were washed after 6 h, and cells were cultured in fresh media with various cdk inhibitors (10 μM). Samples were collected every sixth day and used for p24 gag ELISA assay.
At days 2, 4, and 6, the supernatants were collected, and the released HIV-1 particles were measured by using a p24 antigen ELISA assay. (B) Twenty micrograms of total RNA was separated on an RNA-formaldehyde-agarose gel, transferred, and probed with full-length labeled HIV-1 genome RNA. The hybridized genomic RNA, singly spliced (structural), and doubly spliced (regulatory) RNAs were exposed and counted by using Molecular Dynamic PhosphorImager software.
Supernatants from the infected PBMC were collected and used directly for the p24 antigen assay. The p24 gag antigen level was analyzed by using the HIVAG-1 Monoclonal Antibody Kit (Abbott Laboratories, Diagnostics Division). The HTLV-1 p19 core antigen ELISA kit was from Retro-Tek (Cellular Products).

Assay [2] has as its system HIV-1 LTR (Tat transactivation). The assay is described as follows: HIV-1 LTR-CAT reporter, Tat-activated transcription in CEM cells. The conditions noted are these: LTR-CAT plus pcTat (CMV-driven Tat). An excerpt: Activated transcription by Tat was also examined in CEM cells using the LTR-CAT reporter and pcTat (CMV-driven Tat). […] .
FIG. 3 discloses inhibition of HIV-1 basal and activated transcription by cdk inhibitors. […] The graphs at the bottom of the figure represent the effect of various concentrations of general cell cycle inhibitors (hydroxyurea and nocodazole) on CEM cells. (B) Inhibition of activated transcription in CEM cells was examined using transfected HIV-1 LTR-CAT, together with pcTat plasmid. (C) Experiment similar experiment to that in panel B, except that pcTat plasmid was replaced with E. coli-expressed and purified Tat protein
Lymphocyte CEM (12D7) cells were grown to mid-log phase and were processed for protein electroporation according to a previously published procedure (24). Only one modification was introduced, in which the cells were electroporated at 230 V and plated in 10 ml of complete RPMI 1640 medium for 18 h prior to harvest and chloramphenicol acetyl transferase (CAT) assay. […] Cells were freeze-thawed three times with intermittent vortexing and then incubated for 3 min at 68° C., followed by centrifugation. Supernatants were transferred to 1.5-ml Eppendorf tubes and centrifuged, and the supernatants were used for the determination of protein concentration. CAT assays were performed with 2 μg of protein according to the method of Gorman et al. (15).

In the case of `CC(C)[C@H](CO)Nc1nc(Nc2cccc(Cl)c2)c2ncn(C(C)C)c2n1` [Purvalanol A], the “block of viral replication (p24 gag), NSI strain” value in assay [1] is “effectively blocked viral replication”. Besides, the “inhibition of HIV-1 replication (p24 in medium)” value in the assay on HIV-1 is given as “most effective”. In assay [2], the “inhibition of Tat transactivation (CAT activity)” value was “impaired”.

Roscovitine: in assay [1], the “block of viral replication (p24 gag), NSI strain” value is on record as “effectively blocked viral replication”. Moreover, the “inhibition of HIV-1 replication (p24 in medium)” value with HIV-1 is “most effective”. For the same compound, the “inhibition of HIV-1 replication (p24), Tat-treated cells” value with HIV-1 (ACH2, 8E5, U1 electroporated with purified Tat, drugs for 5 days) is listed as “best inhibited”. Moreover, the figures for the “p24 antigen release, time course” value in the assay with HIV-1 (1 μM) and in the assay on HIV-1 (10 μM) were “no obvious decrease of p24 was apparent” and “only low levels of viral p24 antigens were detected”, respectively. Besides, the “inhibition of Tat transactivation (CAT activity)” value in assay [2] is “impaired; also recorded: inhibited activated transcription better than the other two analogs”.
